Results published in patent US12404283B2, “c-MYC mRNA translation modulators and uses thereof in the treatment of cancer” (Anima Biotech Inc., priority 2022, dated 2025).

Tested on: c-Myc
Assay: c-Myc immunofluorescence assay
Type: cell-based, human
Conditions: A549 cells, 24 hours treatment, anti-c-Myc immunofluorescence
Outline: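 A549 cells grown 48 h, exposed 24 h to rising compound concentrations, then fixed, permeabilised and stained for c-Myc plus DAPI. Nuclear-segmented c-Myc fluorescence quantified by high-content imaging at 20×; EC50 from logistic dose–response fits.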

SMILES | Myc Efficacy (−LogEC50)
CNC(=O)c1ccc(-c2cn3c(n2)sc2cc(C(=O)NC4(CO)CCOCC4)ccc23)cc1 [compound 237, N-(4-(hydroxymethyl)tetrahydro-2H-pyran-4-yl)-2-(4-(methylcarbamoyl)phenyl) benzo[d]imidazo[2,1-b]thiazole-7-carboxamide] | − (− ≤3)
CNC(=O)c1ccc(-c2cn3c(n2)sc2cc(C(=O)N[C@H]4[C@H]5CN[C@@H]4C5)ccc23)cc1 [compound 238, N-((1R,4R,5S)-2-azabicyclo[2.1.1]hexan-5-(methylcarbamoyl)phenyl) benzo[d]imidazo[2,1-b]thiazole-7-carboxamide] | − (− ≤3)
CNC(=O)c1ccc(-c2cn3c(n2)sc2cc(C(=O)NC4CC4OC)ccc23)cc1 (stereo not shown) [compound 240, N-(2-methoxycyclopropyl)-2-(4-(methylcarbamoyl)phenyl) benzo[d]imidazo[2,1-b] thiazole-7-carboxamide] | + (+ >3 and <5)
CNC(=O)c1ccc(-c2cn3c(n2)sc2cc(C(=O)NC4CC5(CNC5)C4)ccc23)cc1 [compound 241, 2-(4-(methylcarbamoyl)phenyl)-N-(2-azaspiro[3.3]heptan-6-yl)benzo[d]imidazo[2,1-b] thiazole-7-carboxamide] | + (+ >3 and <5)
CC[C@H](NC(=O)c1ccc2c(c1)sc1nc(-c3ccc(C(=O)NC)cc3)cn12)c1ccnn1C [compound 242, (S)-N-(1-(1-methyl-1H-pyrazol-5-yl)propyl)-2-(4-(methylcarbamoyl)phenyl) benzo[d]imidazo[2,1-b] thiazole-7-carboxamide] | + (+ >3 and <5)
CCc1nccn1CCNC(=O)c1ccc2c(c1)sc1nc(-c3ccc(C(=O)NC)cc3)cn12 [compound 243, N-(2-(2-ethyl-1H-imidazol-1-yl)ethyl)-2-(4-(methylcarbamoyl)phenyl) benzo[d]imidazo[2,1-b] thiazole-7-carboxamide] | + (+ >3 and <5)
CNC(=O)c1ccc(-c2cn3c(n2)sc2cc(C(=O)NCC(C)(C)N4CCOCC4)ccc23)cc1 [compound 244, N-(2-methyl-2-morpholinopropyl)-2-(4-(methylcarbamoyl)phenyl) benzo[d]imidazo[2,1-b] thiazole-7-carboxamide] | − (− ≤3)
CNC(=O)c1ccc(-c2cn3c(n2)sc2cc(C(=O)N[C@H]4C[C@@H](OC)C4)ccc23)cc1 [compound 245, N-((1s,3s)-3-methoxycyclobutyl)-2-(4-(methylcarbamoyl)phenyl) benzo[d]imidazo[2,1-b] thiazole-7-carboxamide] | − (− ≤3)
CNC(=O)c1ccc(-c2cn3c(n2)sc2cc(C(=O)N[C@H]4C[C@@H](NC)C4)ccc23)cc1 [compound 246, N-((1s,3s)-3-(methylamino)cyclobutyl)-2-(4-(methylcarbamoyl)phenyl) benzo[d]imidazo[2,1-b] thiazole-7-carboxamide] | + (+ >3 and <5)
CNC(=O)c1ccc(-c2cn3c(n2)sc2cc(C(=O)N[C@H]4C[C@H](NC)C4)ccc23)cc1 [compound 247, N-((1r,3r)-3-(methylamino)cyclobutyl)-2-(4-(methylcarbamoyl)phenyl) benzo[d]imidazo[2,1-b] thiazole-7-carboxamide] | − (− ≤3)
Cc1cccc(-c2cn3c(n2)sc2cc(C(=O)NCCCN4CC5CC4CN5C)ccc23)c1 (stereo not shown) [compound 248, N-(3-(5-methyl-2,5-diazabicyclo[2.2.1]heptan-2-yl)propyl)-2-(m-tolyl)benzo[d]imidazo[2,1-b]thiazole-7-carboxamide] | + (+ >3 and <5)
CNC(=O)c1ccc(-c2cn3c(n2)sc2cc(C(=O)NCCCN4CC5CC4CN5C)ccc23)cc1 (stereo not shown) [compound 249, N-(3-(5-methyl-2,5-diazabicyclo[2.2.1]heptan-2-yl)propyl)-2-(4-(methylcarbamoyl)phenyl) benzo[d]imidazo[2,1-b]thiazole-7-carboxamide] | − (− ≤3)
CNC(=O)c1ccc(-c2cn3c(n2)sc2cc(C(=O)N4CCN(CC(N)=O)CC4)ccc23)cc1 [compound 250, 4-(7-(4-(2-amino-2-oxoethyl)piperazine-1-carbonyl)benzo[d]imidazo [2,1-b]thiazol-2-yl)-N-methylbenzamide] | + (+ >3 and <5)
CNC(=O)c1ccc(-c2cn3c(n2)sc2cc(C(=O)NCC4(N)CC4)ccc23)cc1 [compound 251, N-((1-aminocyclopropyl)methyl)-2-(4-(methylcarbamoyl)phenyl) benzo[d]imidazo[2,1-b]thiazole-7-carboxamide] | − (− ≤3)
CNC(=O)c1ccc(-c2cn3c(n2)sc2cc(C(=O)NCC4CC(=O)N(C)C4)ccc23)cc1 (stereo not shown) [compound 252, N-((1-methyl-5-oxopyrrolidin-3-yl)methyl)-2-(4-(methylcarbamoyl)phenyl) benzo[d]imidazo[2,1-b]thiazole-7-carboxamide] | + (+ >3 and <5)
CNC(=O)c1ccc(-c2cn3c(n2)sc2cc(C(=O)N[C@H]4[C@@H]5CNC[C@@H]54)ccc23)cc1 [compound 253, N-((1R,5S,6s)-3-azabicyclo[3.1.0]hexan-6-yl)-2-(4-(methylcarbamoyl)phenyl) benzo[d]imidazo[2,1-b]thiazole-7-carboxamide] | + (+ >3 and <5)

SMILES | Myc Efficacy (−LogEC50)
CNC(=O)c1ccc(-c2cn3c(n2)sc2cc(C(=O)NCC4CCC(=O)N4C)ccc23)cc1 (stereo not shown) [compound 254, N-((1-methyl-5-oxopyrrolidin-2-yl)methyl) 2-(4-(methylcarbamoyl)phenyl) benzo[d]imidazo[2,1-b]thiazole-7-carboxamide] | + (+ >3 and <5)
CNC(=O)c1ccc(-c2cn3c(n2)sc2cc(C(=O)NCC(=O)NCC(F)(F)F)ccc23)cc1 [compound 255, 2-(4-(methylcarbamoyl)phenyl)-N-(2-oxo-2-((2,2,2-trifluoroethyl)amino)ethyl) benzo[d]imidazo[2,1-b]thiazole-7-carboxamide] | − (− ≤3)
CNC(=O)c1ccc(-c2cn3c(n2)sc2cc(C(=O)NC[C@H](O)c4ccccc4)ccc23)cc1 [compound 256, (R)-N-(2-hydroxy-2-phenylethyl)-2-(4-(methylcarbamoyl)phenyl) benzo[d]imidazo[2,1-b]thiazole-7-carboxamide] | − (− ≤3)
CNC(=O)c1ccc(-c2cn3c(n2)sc2cc(C(=O)NCCC4CCCN4C)ccc23)cc1 (stereo not shown) [compound 257, 2-(4-(methylcarbamoyl)phenyl)-N-(2-(1-methylpyrrolidin-2-yl)ethyl)benzo[d]imidazo [2,1-b]thiazole-7-carboxamide] | ++ (++ ≥5 and <6)
CNC(=O)c1ccc(-c2cn3c(n2)sc2cc(C(=O)NC4CC(O)C4(C)C)ccc23)cc1 (stereo not shown) [compound 258, N-(3-hydroxy-2,2-dimethylcyclobutyl)-2-(4-(methylcarbamoyl)phenyl) benzo[d]imidazo[2,1-b]thiazole-7-carboxamide] | + (+ >3 and <5)
CNC(=O)c1ccc(-c2cn3c(n2)sc2cc(C(=O)NCC4CC4(F)F)ccc23)cc1 (stereo not shown) [compound 259, N-((2,2-difluorocyclopropyl)methyl)-2-(4-(methylcarbamoyl)phenyl) benzo[d]imidazo[2,1-b]thiazole-7-carboxamide] | + (+ >3 and <5)
CNC(=O)c1ccc(-c2cn3c(n2)sc2cc(C(=O)NCCC4(O)CCCC4)ccc23)cc1 [compound 260, N-(2-(1-hydroxycyclopentyl)ethyl)-2-(4-(methylcarbamoyl)phenyl) benzo[d]imidazo[2,1-b]thiazole-7-carboxamide] | − (− ≤3)
CNC(=O)c1ccc(-c2cn3c(n2)sc2cc(C(=O)NCC4(C)CC4)ccc23)cc1 [compound 261, 2-(4-(methylcarbamoyl)phenyl) N-((1-methylcyclopropyl)methyl) benzo[d]imidazo[2,1-b]thiazole-7-carboxamide] | − (− ≤3)
CNC(=O)c1ccc(-c2cn3c(n2)sc2cc(C(=O)NCCN4CCCCC4C)ccc23)cc1 (stereo not shown) [compound 262, 2-(4-(methylcarbamoyl)phenyl) N-(2-(2-methylpiperidin-1-yl)ethyl)benzo[d]imidazo [2,1-b]thiazole-7-carboxamide] | + (+ >3 and <5)
CNC(=O)c1ccc(-c2cn3c(n2)sc2cc(C(=O)N[C@H]4c5ccccc5C[C@H]4O)ccc23)cc1 [compound 263, N-((1S,2R)-2-hydroxy-2,3-dihydro-1H-inden-1-yl)-2-(4-(methylcarbamoyl)phenyl) benzo[d]imidazo[2,1-b]thiazole-7-carboxamide] | − (− ≤3)
CCCN1CCC(NC(=O)c2ccc3c(c2)sc2nc(-c4ccc(C(=O)NC)cc4)cn23)CC1 [compound 264, 2-(4-(methylcarbamoyl)phenyl)-N-(1-propylpiperidin-4-yl)benzo[d]imidazo[2,1-b]thiazole-7-carboxamide] | +++ (+++ ≥6)
Cc1cccc(-c2cn3c(n2)sc2cc(NC(=O)N4CCNCC4)ccc23)c1 [compound 265, N-(2-(m-tolyl)benzo[d]imidazo[2,1-b]thiazol-7-yl)piperazine-1-carboxamide] | + (+ >3 and <5)
CCN(CC)CCCC(=O)Nc1ccc2c(c1)sc1nc(-c3cccc(C)c3)cn12 [compound 266, 4-(diethylamino)-N-(2-(m-tolyl)benzo[d]imidazo[2,1-b]thiazol-7-yl)butanamide] | + (+ >3 and <5)
CCN(CC)CCNC(=O)Nc1ccc2c(c1)sc1nc(-c3cccc(C)c3)cn12 [compound 267, 1-(2-(diethylamino)ethyl)-3-(2-(m-tolyl)benzo[d]imidazo[2,1-b]thiazol-7-yl)urea] | + (+ >3 and <5)
CCN(CC)CCCNC(=O)c1ccc2c(c1)sc1nc(-c3ccc(-c4ncc[nH]4)cc3)cn12 [compound 268, 2-(4-(1H-imidazol-2-yl)phenyl)-N-(3-(diethylamino)propyl) benzo[d]imidazo[2,1-b] thiazole-7-carboxamide] | + (+ >3 and <5)
